Test results taken from publication PMC11125181, “New Inhibitors of Bcr-Abl Based on 2,6,9-Trisubstituted Purine Scaffold Elicit Cytotoxicity in Chronic Myeloid Leukemia-Derived Cell Lines Sensitive and Resistant to TKIs” (Pharmaceutics, 2024).
Read-outs that look alike come from different tables or passages of the source.

Experiments:
recombinant Abl1 kinase [1] = target: T1, recombinant Abl1 kinase (Homo sapiens, UniProt P00519); details: Figure 2A, compounds with longer N-9 substituents; read-out: IC50 Bcr-Abl; cited from earlier work
T1 construct: made in house

BV173 = experiment: Cytotoxicity assay (resazurin) on BV173; format: cell-based; details: Homo sapiens, BV-173, 72 h
Experimental: (§1) Human cell lines KCL22 and BV173 were obtained from the German Collection of Microorganisms and Cell Cultures, K562 and HEK-293T from the European Collection of Authenticated Cell Cultures. KBM5 cell line was kindly gifted by Vladimír Divoký. Development of KCL22 subclones B8 (T315I, 100%), F4 (E255K, 100%), and B10 (Y253H, 50%) was reported previously. All cell lines were cultivated in humidified incubator at 37 °C and in 5% CO2 according to the provider’s instructions in appropriate media supplemented with 10% fetal bovine serum, penicillin (100 IU/mL), streptomycin (100 µg/mL), and glutamine (4 mM).
(§2) Cytotoxicity was determined using resazurin, an indicator dye to measure oxidation-reduction reactions occurring in the mitochondria of live cells. The cells were seeded into 96-well plates and treated with compounds for 72 h (six different doses of each, in triplicate). After treatment, resazurin (Merck, Darmstadt, Germany) solution was added for 4 h, and the fluorescence of formed resorufin corresponding to live cell quantity was measured at 544 nm/590 nm (excitation/emission) using a Fluoroskan Ascent microplate reader (Labsystems, Vantaa, Finland).

KCL22 F4 (E255K, 100%) = experiment: Cytotoxicity assay (resazurin) on KCL22 subclone F4; format: cell-based; details: Homo sapiens, KCL-22, read-out: GI50 KCL22 F4 E255K (100%), 72 h
Experimental: as §1, §2

KCL22 B10 (Y253H, 50%) = experiment: Cytotoxicity assay (resazurin) on KCL22 subclone B10; format: cell-based; details: Homo sapiens, KCL-22, read-out: GI50 KCL22 B10 Y253H (50%), 72 h
Experimental: as §1, §2

recombinant Abl1 kinase [2] = target: T1, recombinant Abl1 kinase; experiment: Recombinant Abl1 kinase inhibition assay ([γ-33P]ATP, peptide substrate); format: biochemical
Experimental: The reactions were stopped by adding 5 µL of 3% aq. H3PO4. […] H3PO4, and air-dried.

KBM5 = experiment: Cytotoxicity assay (resazurin) on KBM5; format: cell-based; details: Homo sapiens, KBM5; 72 h, resazurin assay; read-out: GI50 KBM5
HEK-293T = experiment: Cytotoxicity assay (resazurin) on non-neoplastic HEK-293T; format: cell-based; details: Homo sapiens, 72 h, non-neoplastic cells
Experimental: as §1, §2

KCL22 B8 (T315I, 100%) = experiment: Cytotoxicity assay (resazurin) on KCL22 subclone B8; format: cell-based; details: Homo sapiens, KCL-22, read-out: GI50 KCL22 B8 T315I (100%), 72 h
Experimental: as §1, §2

[3] = system: KCL22 cells containing Bcr-Abl^WT; experiment: Cytotoxicity assay (resazurin) on KCL22 WT; format: cell-based, human
K562 = experiment: Cytotoxicity assay (resazurin) on K562; format: cell-based; details: Homo sapiens, 72 h
Experimental: as §1, §2

[4] = system: KCL22 models (WT, B8, F4, B10); experiment: Cytotoxicity across all KCL22 models; format: cell-based; details: Homo sapiens, KCL-22, read-out: GI50 in all KCL22 models (span over models)
Experimental: as §1, §2

[5] = system: KCL22 B8 cell line containing Bcr-Abl^T315I; experiment: Cell cycle flow cytometry, KCL22 B8; format: cell-based, human; details: 24 h treatment
Experimental: The cell lines were seeded into 96-well plates and then treated with compounds for 24 h. After treatment, the cells were directly stained by adding 5 × staining solution (17 mM trisodium citrate dihydrate, 0.5% IGEPAL® CA-630, 7.5 mM spermine tetrahydrochloride, 2.5 mM Tris; pH 7.6 containing 50 μg/mL propidium iodide). […] Cell cycle distribution was analyzed using ModFit LT 5.0.9 (Verity Software House, Augusta, ME, USA).

[6] = as listed in Table S1, Bcr-Abl WT, read-out: IC50 (Table S1)
[7] = from the IC50 of Table S1, read-out: pIC50 (Table S1) (converted)
[8] = recombinant Abl1, 1 µM ATP, at least three independent experiments, read-out: IC50 Abl
[9] = Homo sapiens, KCL-22, 72 h, read-out: GI50 KCL22 WT

T1 sequence (P00519 whole entry): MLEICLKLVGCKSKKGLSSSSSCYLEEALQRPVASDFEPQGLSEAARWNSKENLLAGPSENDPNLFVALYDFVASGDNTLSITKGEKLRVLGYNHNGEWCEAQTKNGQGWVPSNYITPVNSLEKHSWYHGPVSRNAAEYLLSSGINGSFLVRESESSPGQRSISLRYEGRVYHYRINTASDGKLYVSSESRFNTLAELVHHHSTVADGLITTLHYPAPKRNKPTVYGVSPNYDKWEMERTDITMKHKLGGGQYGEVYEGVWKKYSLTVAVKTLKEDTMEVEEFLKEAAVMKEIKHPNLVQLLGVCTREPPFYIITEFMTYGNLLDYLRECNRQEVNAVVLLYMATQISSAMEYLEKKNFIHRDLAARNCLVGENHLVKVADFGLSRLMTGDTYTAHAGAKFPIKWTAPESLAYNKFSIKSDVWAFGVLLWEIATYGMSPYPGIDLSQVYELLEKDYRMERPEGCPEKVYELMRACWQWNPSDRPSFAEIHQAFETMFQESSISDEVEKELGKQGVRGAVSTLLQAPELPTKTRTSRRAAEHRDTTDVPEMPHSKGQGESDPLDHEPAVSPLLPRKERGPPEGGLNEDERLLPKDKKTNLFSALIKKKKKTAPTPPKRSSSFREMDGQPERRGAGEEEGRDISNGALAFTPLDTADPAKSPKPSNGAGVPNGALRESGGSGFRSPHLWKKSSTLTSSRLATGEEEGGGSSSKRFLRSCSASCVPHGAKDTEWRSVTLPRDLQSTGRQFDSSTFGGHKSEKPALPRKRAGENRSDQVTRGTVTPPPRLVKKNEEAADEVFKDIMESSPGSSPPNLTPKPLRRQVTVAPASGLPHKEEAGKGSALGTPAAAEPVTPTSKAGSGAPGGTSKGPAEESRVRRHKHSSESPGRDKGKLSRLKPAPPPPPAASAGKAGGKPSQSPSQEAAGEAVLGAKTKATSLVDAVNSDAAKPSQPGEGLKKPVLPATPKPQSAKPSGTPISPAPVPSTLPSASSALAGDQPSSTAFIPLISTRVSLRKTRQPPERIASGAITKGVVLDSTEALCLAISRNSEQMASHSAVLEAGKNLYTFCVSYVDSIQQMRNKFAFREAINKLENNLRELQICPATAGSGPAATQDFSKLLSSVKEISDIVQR

Compound | IC50 (recombinant Abl1 kinase [1]) [µM] | GI50 (BV173) [µM] | GI50 (KCL22 F4 (E255K, 100%)) [µM] | GI50 (KCL22 B10 (Y253H, 50%)) [µM] | IC50 (recombinant Abl1 kinase [2]; [6]) [µM] | IC50 (recombinant Abl1 kinase [2]; [7]) [µM] | IC50 (recombinant Abl1 kinase [2]; [8]) [µM] | melting point [°C] | GI50 (KBM5) [µM] | GI50 (HEK-293T) [µM] | GI50 (KCL22 B8 (T315I, 100%)) [µM] | GI50 [3, 9] [µM] | GI50 (K562) [µM] | GI50 [4] [µM] | Effect on cell cycle distribution, KCL22 B8 (T315I) [5] | GI50 ([3]; 72 h, read-out: GI50 KCL22 WT) [µM] | GI50 ([3]; read-out: GI50 KCL22 WT, 72 h) [µM]
CC(C)CCn1cnc2c(Nc3ccc(F)c(F)c3)nc(Nc3ccc(N4CCN(C)CC4)cc3)nc21 [IV] | 2.28 |  |  |  |  |  |  |  |  |  |  |  |  |  |  |  | 
CN1CCN(c2ccc(Nc3nc(N)c4ncn(CC5CC5)c4n3)cc2)CC1 [Compound 13a, 9-(Cyclopropylmethyl)-N^2-(4-(4-methylpiperazin-1-yl)phenyl)-9H-purine-2,6-diamine] |  | > 20 | > 100 | > 100 | 3.95 | 3.95 | 3.96 ± 0.51 | 133 to 134 | > 100 | > 100 | > 100 | > 100 | > 100 |  |  |  | 
CC(C)CCn1cnc2c(Nc3ccccc3)nc(Nc3ccc(N4CCN(CCO)CC4)cc3)nc21 [Compound 11d, 2-(4-(4-((9-Isopentyl-6-(phenylamino)-9H-purin-2-yl)amino)phenyl)piperazin-1-yl)ethan-1-ol] |  | 3.6 ± 0.7 | 6.6 ± 0.6 | 7.8 ± 0.5 |  | 1.24 | 1.24 ± 0.22 | 88.6 to 89.2 | 5.6 ± 0.4 | 5.7 ± 1.2 | 7.8 ± 1.3 | 8.4 ± 0.3 | 6.3 ± 0.7 |  |  |  | 
CC(C)CCn1cnc2c(Nc3cccc(F)c3)nc(Nc3ccc(N4CCN(CCO)CC4)cc3)nc21 [Compound 11e, 2-(4-(4-((6-((3-Fluorophenyl)amino)-9-isopentyl-9H-purin-2-yl)amino)phenyl)piperazin-1-yl)ethan-1-ol] |  | 3.8 ± 0.1 | 5.6 ± 0.5 | 6.9 ± 0.1 | 0.13 | 0.13 | 0.131 ± 0.071 |  | 5 ± 0.1 | 4.7 ± 0.7 | 6.9 ± 0.8 | 6.1 ± 0.1 | 4.3 ± 0.2 | 5.6 to 6.9 | resistant |  | 
OCCN1CCN(c2ccc(Nc3nc(Nc4ccc(F)c(F)c4)c4ncn(CC5CC5)c4n3)cc2)CC1 [Compound 11c, 2-(4-(4-((9-(Cyclopropylmethyl)-6-((3,4-difluorophenyl)amino)-9H-purin-2-yl)amino)phenyl)piperazin-1-yl)ethan-1-ol] |  | 1.7 ± 0.1 | 4.1 ± 0.2 | 4.1 ± 0.2 |  | 0.019 | 0.02 ± 0.001 |  | 2.1 ± 0.3 | 5 ± 0.9 | 6.4 ± 0.4 | 2.9 | 0.9 ± 0.2 |  |  |  | 
CN1CCN(c2ccc(Nc3nc(NCc4ccccc4)c4ncn(CC5CC5)c4n3)cc2)CC1 [Compound 13c, N^6-benzyl-9-(cyclopropylmethyl)-N^2-(4-(4-methylpiperazin-1-yl)phenyl)-9H-purine-2,6-diamine] |  | 11.9 ± 1.4 | > 20 | > 20 | 0.84 | 0.839 | 0.845 ± 0.066 | 152 to 154 | > 20 | 16.7 ± 1.1 | > 20 | > 20 | 5.7 ± 0.6 |  |  |  | 
CCCCCCn1cnc2c(Nc3cccc(F)c3)nc(Nc3ccc(N4CCN(CCO)CC4)cc3)nc21 [Compound 11h, 2-(4-(4-((6-((3-Fluorophenyl)amino)-9-hexyl-9H-purin-2-yl)amino)phenyl)piperazin-1-yl)ethan-1-ol] |  | 5.2 ± 0.5 | 8.1 ± 1.2 | 5.9 ± 0.7 | 0.67 | 0.67 | 0.674 ± 0.069 |  | 5.8 ± 0.2 | 6 ± 1 | 9.5 ± 1.5 | 9.6 ± 1 | 4.8 ± 0.4 |  |  |  | 
OCCN1CCN(c2ccc(Nc3nc(Nc4ccccc4)c4ncn(CC5CC5)c4n3)cc2)CC1 [Compound 11a, 2-(4-(4-((9-(Cyclopropylmethyl)-6-(phenylamino)-9H-purin-2-yl)amino)phenyl)piperazin-1-yl)ethan-1-ol] |  | 3 ± 0.6 | 12.7 ± 0.1 | 6.3 ± 0.4 |  | 0.037 | 0.037 ± 0.012 |  | 3 ± 0.1 | 9.5 ± 0.7 | > 20 | 5.7 ± 0.8 | 1.2 ± 0.3 |  |  |  | 
Cc1cn(-c2cc(NC(=O)c3ccc(C)c(Nc4nccc(-c5cccnc5)n4)c3)cc(C(F)(F)F)c2)cn1 [Nilotinib, reference compound] |  | 0.003 | 0.789 ± 0.081 | 1.4 ± 0.3 |  |  |  |  | 0.019 ± 0.009 | > 10 | > 20 |  | 0.025 ± 0.01 |  | no effect | 0.047 ± 0.008 | 0.019
CCCCCCn1cnc2c(Nc3ccccc3)nc(Nc3ccc(N4CCN(CCO)CC4)cc3)nc21 [Compound 11g, 2-(4-(4-((9-Hexyl-6-(phenylamino)-9H-purin-2-yl)amino)phenyl)piperazin-1-yl)ethan-1-ol] |  | 5.2 ± 0.2 | 8.5 ± 0.9 | 7.7 ± 0.2 | 0.83 | 0.83 | 0.834 ± 0.447 |  | 5.4 ± 0.2 | 8.6 ± 3.2 | 10.4 ± 1.8 | 15.1 ± 2.2 | 4.5 ± 1.4 |  |  |  | 
CCCCCCn1cnc2c(Nc3ccc(F)c(F)c3)nc(Nc3ccc(N4CCN(CCO)CC4)cc3)nc21 [Compound 11i, 2-(4-(4-((6-((3,4-Difluorophenyl)amino)-9-hexyl-9H-purin-2-yl)amino)phenyl)piperazin-1-yl)ethan-1-ol] |  | 4.8 ± 0.3 | > 20 | > 20 |  | 1.68 | 1.68 ± 0.01 | 135.1 to 137.1 | 5.6 ± 0.2 | > 20 | > 20 | > 20 | 3.1 ± 0.6 |  |  |  | 
CN1CCN(c2ccc(Nc3nc(NC4CCCCC4)c4ncn(CC5CC5)c4n3)cc2)CC1 [Compound 13b, N^6-cyclohexyl-9-(cyclopropylmethyl)-N^2-(4-(4-methylpiperazin-1-yl)phenyl)-9H-purine-2,6-diamine] |  | > 20 | > 20 | > 20 | 11.1 | 11 | 11.1 ± 3.31 |  | > 20 | > 20 | > 20 | > 20 | 4.8 ± 0.3 |  |  |  | 
